Broadly, the pIC50 is −log10 of the IC50, conventionally taken in molar units.

SMILES strings stand for the structures. pIC50: −log10 of the molar value. Counter-ions that a name gives are not always drawn.

From patent US10005767B2, “Compositions and methods for inhibition of the JAK pathway” (Rigel Pharmaceuticals, Inc., priority 2009, dated 2018) come the findings set out here.

One assay concerns human primary T-cells, IL-2 stimulated proliferation (JAK-1 and JAK-3 dependent; reported as JAK3 activity). Briefly: Human primary T-cell proliferation stimulated by IL-2 (Example 3). The class given is cell-based. The following applies: Homo sapiens, T-cell, tested under conditions described in Example 3 (IL-2 stimulated human primary T-cell proliferation); read-out: ability to inhibit JAK3 activity, IC50 range (Table V). The gist of the method:
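Peripheral-blood human T-cells pre-activated via TCR/CD28, IL-2-starved overnight, then cultured 72 h at 37 °C with compound in Yssel's medium containing IL-2 (80 U/mL in cell suspension). Proliferation read as viable-cell ATP by CellTiter-Glo luminescence; reduction versus control taken as JAK pathway inhibition.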
In the case of `Cc1cnc(Nc2ccc(Cl)cc2)nc1Nc1ccc2oc(=O)[nH]c2c1` [Compound I-172, 5-[2-(4-Chloro-phenylamino)-5-methyl-pyrimidin-4-ylamino]-3H-benzooxazol-2-one], the pIC50 is over 6.30.

Turning to `Cc1cnc(Nc2ccc(N3CCC(N4CCOCC4)C3)nc2)nc1Nc1ccc2oc(=O)[nH]c2c1` (centres unmarked) [II-84, 5-(5-methyl-2-(6-(3-morpholinopyrrolidin-1-yl)pyridin-3-ylamino)pyrimidin-4-ylamino)benzo[d]oxazol-2(3H)-one], the pIC50 is over 6.30.

On to `Cc1cnc(Nc2ccc(N3C[C@@H](C)NC[C@@H]3C)nc2)nc1Nc1ccc2oc(=O)[nH]c2c1` (relative stereo) [II-130, N2-[2-(trans-2,5-dimethylpiperazino)pyridin-5-yl]-5-methyl-N4-(2-oxo-2,3-dihydro-1,3-benzoxazol-5-yl)-2,4-pyrimidinediamine], for which the pIC50 was over 6.30.

`Cc1cnc(Nc2ccc(N3CCN(C(=O)OC(F)(F)F)CC3)nc2)nc1Nc1ccc2oc(=O)[nH]c2c1` [II-8, N4-(benzo[d]oxazol-2(3H)-on-5-yl)-N2-(6-(4-trifluoromethoxycarbonylpiperazin-1-yl)pyridin-3-yl)-5-methylpyrimidine-2,4-diamine]: the pIC50 was over 6.30.

In the case of `Cc1cnc(Nc2ccnc(N3CCNCC3)c2)nc1Nc1ccc2oc(=O)[nH]c2c1` [IV-7, N4-(benzo[d]oxazol-2(3H)-on-5-yl)-N2-[2-(piperazino)pyridin-4-yl]-5-methylpyrimidine-2,4-diamine], the pIC50 was 5.00 to 5.30.

As for `COc1cc(Nc2ncc(C)c(Nc3ccc4oc(=O)[nH]c4c3)n2)ccc1-c1cccnc1` [Compound I-506, 5-(2-(3-methoxy-4-(pyridin-3-yl)phenylamino)-5-methylpyrimidin-4-ylamino)benzo[d]oxazol-2(3H)-one formate salt], the pIC50 is over 6.30.

As to `COCCN1C(=O)COc2cc(Nc3ncc(C)c(Nc4ccc5oc(=O)[nH]c5c4)n3)ccc21` [IV-44, N2-[4-(2-methoxyethyl)-2H-1,4-benzoxazin-3 (4H)-one-7-yl]-5-methyl-N4-(2-oxo-2,3-dihydro-1,3-benzoxazol-5-yl)-2,4-pyrimidinediamine], the pIC50 is over 6.30.

Regarding `Cc1cnc(Nc2ccc(C(F)(F)F)cc2)nc1Nc1ccc2oc(=O)[nH]c2c1` [Compound I-160, 5-[5-Methyl-2-(4-trifluoromethyl-phenylamino)-pyrimidin-4-ylamino]-3H-benzooxazol-2-one], the pIC50 was over 6.30.

Regarding `COc1cc(Nc2ncc(C)c(Nc3ccc4oc(=O)[nH]c4c3)n2)cc(C)c1OC` [Compound I-452, 5-(2-(3,4-dimethoxy-5-methylphenylamino)-5-methylpyrimidin-4-ylamino)benzo[d]oxazol-2(3H)-one], the pIC50 was over 6.30.

As to `CSc1ccc(Nc2ncc(C)c(Nc3ccc4oc(=O)[nH]c4c3)n2)cc1C(F)(F)F` [Compound I-155, 5-[5-Methyl-2-(4-methylsulfanyl-3-trifluoromethyl-phenylamino)-pyrimidin-4-ylamino]-3H-benzooxazol-2-one], the pIC50 was over 6.30.

Consider `Cc1ccc(C)c(Nc2ncc(C)c(Nc3ccc4oc(=O)[nH]c4c3)n2)c1` [Compound I-501, 5-(2-(2,5-dimethylphenylamino)-5-methylpyrimidin-4-ylamino)benzo[d]oxazol-2(3H)-one], for which the pIC50 was 5.30 to 6.30.

With `COc1ccc(Nc2ncc(C)c(Nc3ccc4oc(=O)[nH]c4c3)n2)cc1C(F)F` [Compound I-271, 5-(2-(3-(difluoromethyl)-4-methoxyphenylamino)-5-methylpyrimidin-4-ylamino)benzo[d]oxazol-2(3H)-one], the pIC50 was over 6.30.

In the case of `Cc1cnc(Nc2ccc(C=O)cc2)nc1Nc1ccc2oc(=O)[nH]c2c1` [Compound I-4, N4-(benzo[d]oxazol-2(3H)-on-5-yl)-N2-(4-formylphenyl)-5-methylpyrimidine-2,4-diamine], the pIC50 is over 6.30.

Turning to `Cc1cnc(Nc2cc(O)c3ccccc3c2)nc1Nc1ccc2oc(=O)[nH]c2c1` [IV-56, 5-[2-(4-Hydroxy-naphthalen-2-ylamino)-5-methyl-pyrimidin-4-ylamino]-3H-benzooxazol-2-one], the pIC50 is 5.00 to 5.30.

Regarding `COc1ncc(Nc2ncc(C)c(Nc3ccc4oc(=O)[nH]c4c3)n2)cc1C` [II-141, N2-(2-methoxy-3-methylpyridin-5-yl)-5-methyl-N4-(2-oxo-2,3-dihydro-1,3-benzoxazol-5-yl)-2,4-pyrimidinediamine], the pIC50 is over 6.30.

For `CCC(=O)n1c(=O)oc2ccc(Nc3nc(Nc4ccc(C(N)=O)cc4)ncc3C)cc21` [Compound I-145, 4-[5-Methyl-4-(2-oxo-3-propionyl-2,3-dihydro-benzooxazol-5-ylamino)-pyrimidin-2-ylamino]-benzamide], the pIC50 was over 6.30.

For `Cc1cnc(Nc2cccnc2)nc1Nc1ccc2oc(=O)[nH]c2c1` [II-42, 5-[5-Methyl-2-(pyridin-3-ylamino)-pyrimidin-4-ylamino]-3H-benzooxazol-2-one], the pIC50 was 5.30 to 6.30.

For `Cc1cnc(Nc2ccc(F)c(S(C)(=O)=O)c2)nc1Nc1cc(C)c2oc(=O)[nH]c2c1` [Compound I-245, 5-(2-(4-fluoro-3-(methylsulfonyl)phenylamino)-5-methylpyrimidin-4-ylamino)-7-methylbenzo[d]oxazol-2(3H)-one], the pIC50 is over 6.30.

Turning to `Cc1cnc(Nc2ccc(F)c(-c3ccncc3)c2)nc1Nc1ccc2oc(=O)[nH]c2c1` [Compound I-471, 5-(2-(4-fluoro-3-(pyridin-4-yl)phenylamino)-5-methylpyrimidin-4-ylamino)benzo[d]oxazol-2(3H)-one], the pIC50 is over 6.30.

Consider `Cc1cnc(Nc2ccc3c(c2)NC(=O)C3(C)C)nc1Nc1ccc2oc(=O)[nH]c2c1` [IV-26, 5-(2-(3,3-dimethyl-2-oxoindolin-6-ylamino)-5-methylpyrimidin-4-ylamino)benzo[d]oxazol-2(3H)-one], for which the negative-log IC50 (pIC50) was over 6.30.

In the case of `Cc1cnc(Nc2ccc3c(c2)NS(=O)(=O)CO3)nc1Nc1ccc2oc(=O)[nH]c2c1` [IV-16, 5-[2-(2,2-Dioxo-1H-benzo[e][1,3,4]oxathiazin-7-ylamino)-5-methyl-pyrimidin-4-ylamino]-3H-benzooxazol-2-one], the pIC50 is over 6.30.

As to `Cc1cnc(Nc2ccc(C(=O)NC3CC3)c(C(F)(F)F)c2)nc1Nc1ccc2oc(=O)[nH]c2c1` [Compound I-223, N-cyclopropyl-4-(5-methyl-4-(2-oxo-2,3-dihydrobenzo[d]oxazol-5-ylamino)pyrimidin-2-ylamino)-2-(trifluoromethyl)benzamide], the negative logarithm of the IC50 (pIC50) is over 6.30.

The assay is the same for the next values; noted with them: tested under conditions described in Example 3 (IL-2 stimulated human primary T-cell proliferation); read-out: ability to inhibit JAK3 activity, IC50 range (Table V).
As to `Cc1cnc(Nc2ccc(NC3CCNCC3)nc2)nc1Nc1ccc2oc(=O)[nH]c2c1` [II-36, N4-(benzo[d]oxazol-2(3H)-on-5-yl)-N2-[2-(1H-piperidin-4-yl)aminopyridin-5-yl]-5-methylpyrimidine-2,4-diamine], the pIC50 is over 6.30.

Turning to `Cn1c(=O)oc2cc(Nc3nc(Nc4ccc(F)c(NS(C)(=O)=O)c4)ncc3F)ccc21` [Compound I-92, N2-((4-fluoro-3-methylsulfonylamino)phenyl)-N4-(3-methyl-2-oxo-2,3-dihydrobenzo[d]oxazol-6-yl)-5-fluoropyrimidine-2,4-diamine], the pIC50 was under 5.00.

With `Cc1cnc(Nc2cccc(NS(C)(=O)=O)c2)nc1Nc1ccc2c(c1)n(C)c(=O)n2C` [Compound I-37, N4-(1,3-dimethylbenzimidazolin-2-on-5-yl)-N2-((3-methylsulfonylamino)phenyl)-5-methylpyrimidine-2,4-diamine], the pIC50 is over 6.30.

Take `Cc1cnc(Nc2ccc(N3CCNCC3)cc2)nc1Nc1ccc2oc(=O)[nH]c2c1` [Compound I-332, 5-methyl-N4-(2-oxo-2,3-dihydro-1,3-benzoxazol-5-yl)-N2-(4-piperazino)phenyl-2,4-pyrimidinediamine]: the pIC50 was over 6.30.

`COc1cc(Nc2ncc(C)c(Nc3ccc4oc(=O)[nH]c4c3)n2)ccc1N1CCN(C)CC1` [Compound I-340, N2-[3-methoxy-4-(4-methylpiperazino)]phenyl-5-methyl-N4-(2-oxo-2,3-dihydro-1,3-benzoxazol-5-yl)-2,4-pyrimidinediamine]: the pIC50 was over 6.30.

Take `Cc1cnc(Nc2cccc(OC(F)F)c2)nc1Nc1ccc2oc(=O)[nH]c2c1` [Compound I-312, N2-(3-difluoromethoxy)phenyl-5-methyl-N4-(2-oxo-2,3-dihydro-1,3-benzoxazol-5-yl)-2,4-pyrimidinediamine]: the pIC50 was over 6.30.

With `Cc1cnc(Nc2cccc(-c3cccnc3)c2)nc1Nc1ccc2oc(=O)[nH]c2c1` [Compound I-290, 5-methyl-N4-(2-oxo-2,3-dihydro-1,3-benzoxazol-5-yl)-N2-[3-(pyridin-3-yl)]phenyl-2,4-pyrimidinediamine], the pIC50 is over 6.30.

Regarding `Cc1cnc(Nc2cc(F)c(OC(C)(C)C(N)=O)c(F)c2)nc1Nc1ccc2oc(=O)[nH]c2c1` [Compound I-395, N2-[4-(1-aminocarbonyl-1-methyl)ethoxy-3,5-difluoro]phenyl-5-methyl-N4-(2-oxo-2,3-dihydro-1,3-benzoxazol-5-yl)-2,4-pyrimidinediamine], the pIC50 was over 6.30.

As to `Cc1cnc(Nc2ccc(N3C4CCC3CC(N(C)C)C4)nc2)nc1Nc1ccc2oc(=O)[nH]c2c1` (centres unmarked) [II-137, N2-[2-(3-N,N-dimethylamino-8-azabicyclo[3.2.1]octan-8-yl)pyridin-5-yl]-5-methyl-N4-(2-oxo-2,3-dihydro-1,3-benzoxazol-5-yl)-2,4-pyrimidinediamine], the pIC50 was over 6.30.

Consider `Cc1cnc(Nc2ccc(OC(C)(C)C(N)=O)nc2)nc1Nc1ccc2oc(=O)[nH]c2c1` [II-146, N2-[2-(1-aminocarbonyl-1-methyl)ethoxypyridin-5-yl]-5-methyl-N4-(2-oxo-2,3-dihydro-1,3-benzoxazol-5-yl)-2,4-pyrimidinediamine], for which the pIC50 is over 6.30.
